# “Also recorded” adds a separate entry of the source. Where two headings read alike, the source gives them in different places.
# Key:
# [1] = system: HFF cells; assay: In vitro toxicity assay on host cells ([3H]-thymidine incorporation or WST-1); assay type: cell-based, Human; details: for Toxicity: HFF cells
# Protocol: (§1) Determination of the anti-apicomplexan activity of Compounds of Formula I may be determined by one skilled in the art. Parasite proliferation was monitored by using stably transfected type I RH-YFP parasites, which constitutively express Yellow Florescent Protein. Proliferation also was tested using a [^3H]-Uracil incorporation assay, as Uracil is incorporated into nucleic acids of T. gondii tachyzoites, but not mammalian cells, as they divide. Complimentary challenge assays ensured that the observed fluorescence data was due to parasite inhibition and not to quenched fluorescence. Pyrimethamine and sulfadiazine were used as positive controls, and DMSO at a concentration of 0.1% was used as the negative control. Because T. gondii is an obligate parasite, compounds that are toxic to host cells will appear to inhibit parasite growth. Therefore, all test compounds were simultaneously evaluated for efficacy and toxicity against human cells.
# HFF cells were grown to 30% confluence in 96-well plates.
# Inhibitory compounds and control media were added to wells in concentrations equal to those being tested in challenge assays. After 72 hours, [^3H]-Thymidine incorporation assay was conducted to assess cell growth. Alternatively, toxicity was assessed using WST-1 cell proliferation reagent (Roche). Confluent HFF cells were treated with inhibitory and control compounds. On the final day of experiment, 10 uL of WST-1 reagent was added to each well. Plates were incubated for 1 hour in the dark at 37° C., and absorbance was measured using Synergy H4 Hybrid Reader (BioTek) fluorometer at […].
# [2] = In vivo oral toxicity in mice; details: for toxic effects when dosed orally: gavage daily for nine days, 100 mg/kg; for signs of toxicity in mice, in words: mouse, in vivo
# Protocol: Selected compounds were evaluated for in vivo efficacy against T. gondii and P. falciparum. To asses toxic effects when administered orally, selected compounds were administered orally to mice daily for nine days at a dose of 100 mg/kg. At the end of the ten days, the animals were evaluated for toxic effects.
# Todetermine whether 14a or 14b exerted toxic effects when dosed orally, each compound was administered by gavage to mice daily for nine days at a dose of 100 mg/kg.
# HLA B07 transgenic mice were produced at Pharmexa-Epimmune (San Diego, Calif., USA) and bred at the University of Chicago. All studies were conducted with Institutional Animal Care and Use Committee at the USDA, the University of Chicago, and the University of Strathclyde.
# [3] = Uninfected mice dosed with compound alone (groups of the oocyst study); assay type: in vivo; details: for Day of Death: challenge None; for symptoms of uninfected mice dosed with compound alone: 100 or 25 mg/kg oral gavage
# Protocol: Thus, compounds 14a and 14b were tested for efficacy in a mouse model of T. gondii oocyst infection. The oocyst form of the parasite is excreted by cats and is often the form by which people and other animals become infected. This oocyst infection in mice is very virulent, and fatal. Mice were infected by oral gavage with ME49 or TgGoatUS4 oocysts. Mice were treated with either a high dose (100 mg/kg) or low dose (25 mg/kg) of 14a or 14b 1 mL suspension via oral gavage, or were not treated. […] Treatment with 14a and 14b increased survival by 1 day (Table 6, FIGS. 8 and 9).
# Five groups of B7 female mice weighing approximately 25 g were used. Group 1 received only 14a (100 mg/kg, 2.5 mg/mL, 1.0 mL) by oral gavage. Group 2 received only 14a (25 mg/kg, 0.5 mg/mL, 1.0 mL) by oral gavage. Group 3 received 14a (100 mg/kg, 2.5 mg/mL, 1.0 mL) and 100 ME49 oocysts by oral gavage. Group 4 received 14a (25 mg/kg, 0.5 mg/mL, 1.0 mL) and 100 ME49 oocysts by oral gavage. Group 5 received only 100 ME49 oocysts by oral gavage.
# Five groups of B7 female mice weighing approximately 25 g were used. Group 1 received only 14b (100 mg/kg, 2.5 mg/mL, 1.0 mL) by oral gavage. Group 2 received only 14b (25 mg/kg, 0.5 mg/mL, 1.0 mL) by oral gavage. Group 3 received 14b (100 mg/kg, 2.5 mg/mL, 1.0 mL) and 100 TgGoatUS4 oocysts by oral gavage. Group 4 received 14a (25 mg/kg, 0.5 mg/mL, 1.0 mL) and 100 TgGoatUS4 oocysts by oral gavage. Group 5 received only 100 TgGoatUS4 oocysts by oral gavage.
# [4] = system: T. gondii tachyzoites; assay: In vitro inhibition of T. gondii tachyzoites (RH-YFP fluorescence / [3H]-uracil incorporation); assay type: cell-based; details: for IC50 / IC90: Toxoplasma gondii; for activity against T. gondii tachyzoites, in words: only MIC50≦1 μM considered active
# Protocol: as §1
# Test compounds were dissolved in DMSO to make a 10 mM solution, and subsequently diluted with IMDM-C to the concentrations used in bioassay. In the in vitro experiments DMSO concentration was not greater than 0.1% unless otherwise specified. RH-YFP parasites, which stably express Yellow Florescent Protein, were used. Tachyzoites were extracted from HFF cells by double passage through a 25-gauge needle, centrifuged for 15 minutes at 1500 RPM, and resuspended in IMDM-C. Confluent monolayers of HFF cells were infected with parasites in 96-well plates (Falcon 96 Optilux Flat-bottom) with 3,500 parasites in 100 uL per well. One hour after inoculation, test compounds and control media were added for a final volume of 200 uL per well. Parasite proliferation was assessed using [^3H]-Uracil incorporation or YFP Fluorescence assay.
# Human Foreskin Fibroblast (HFF) cells were maintained in confluent monolayers in Iscoves's Modified Dulbecco's Medium supplemented with 10% fetal bovine serum, 1% GlutaMAX and 1% penicillin-streptomycin-fungizone (IMDM-C). T. gondii tachyzoites were cultivated in HFF monolayers. Parasites and cells were maintained at 33° C. or 37° C. and 5% CO2. The strains of parasite used in this study include RH, RH-YFP, and Prugnaud FLUC (Type 2 parasites stably transfected with luciferase), Me49 strain, and TgGoatUS4 isolate.
# 25 μL of 0.1 mCi/mL*^3H]-Uracil or [^3H]-Thymidine was added to each well 24 hours before reading plates. At harvesting, contents of the wells were transferred onto a 96-well UniFilter GF/C filter plates using a Filtermate 196 cell harvester (Packard). [^3H]-Uracil and [^3H]-Thymidine incorporation was measured using a Microplate Scintillation Luminescence Counter (Packard).
# 72 hours after initiation of the in vitro challenge assay, parasite proliferation was assessed by reading fluorescence of YFP parasites with a Synergy H4 Hybrid Reader (BioTek) and Gen5 1.10 software, using a bottom optics positions, excitation wavelength of 514 nm, and emission wavelength of 540 nm.
# [5] = serial dilutions, additional test concentrations, RH-YFP, read-out: IC50
# [6] = serial dilutions, additional test concentrations, RH-YFP, read-out: IC90
SMILES,"toxicity to human host cells, in words [1]",Toxicity [1],toxic effects when dosed orally [2],"signs of toxicity in mice, in words [2]",Day of Death ([3]; 25 mg/kg oral gavage),Day of Death ([3]; 100 mg/kg oral gavage),symptoms of uninfected mice dosed with compound alone [3],IC50 [4],IC90 [4],"activity against T. gondii tachyzoites, in words [4]","IC50 [4, 5]","IC90 [4, 6]"
"CN(CC(=O)NN)C(=O)Oc1ccc(Cl)cc1C(=O)Nc1ccc(C(F)(F)F)cc1C(F)(F)F.Cl [Compound 14b, 2-((2,4-bis(trifluoromethyl)phenyl)carbamoyl)-4-chlorophenyl (2-hydrazinyl-2-oxoethyl)(methyl)carbamate hydrochloride]",not toxic to human host cells,>1000 nM,all mice were alive and appeared healthy,no signs of toxicity,None,None,remained asymptomatic,125 to 250 nM,125 to 250 nM,active at low nanomolar concentrations,,
"CN(CC(=O)NN)C(=O)Oc1ccc(Cl)cc1C(=O)Nc1ccc([N+](=O)[O-])cc1Cl.Cl [Compound 14a, 4-chloro-2-((2-chloro-4-nitrophenyl)carbamoyl)phenyl (2-hydrazinyl-2-oxoethyl)(methyl)carbamate hydrochloride]",not toxic to human host cells,>1000 nM,all mice were alive and appeared healthy,no signs of toxicity,None,None,remained asymptomatic,16 to 31 nM,125 to 250 nM,active at low nanomolar concentrations,,
"O=C(Oc1ccc(Cl)cc1C(=O)Nc1ccc([N+](=O)[O-])cc1Cl)c1ccccc1 [Compound 7a, 4-chloro-2-((2-chloro-4-nitrophenyl)carbamoyl)phenyl benzoate]",not toxic to human host cells,>1000 nM,,,,,,,,active at low nanomolar concentrations; also recorded: apparent increase in potency over 4,61 to 125 nM,125 to 250 nM
O=C(Nc1cc(C(F)(F)F)cc(C(F)(F)F)c1)c1cc(Cl)ccc1O [Compound 3j],not toxic to human host cells,>1000 nM,,,,,,,,active at low nanomolar concentrations; also recorded: promising activity,16 to 31 nM,125 to 250 nM
"CC(C)(C)c1cccc(NC(=O)c2cc(Cl)ccc2O)c1 [Compound 3i, N-(3-tert-butylphenyl)-5-chloro-2-hydroxybenzamide]",not toxic to human host cells,>1000 nM,,,,,,,,active at low nanomolar concentrations,,16 to 31 nM

# Reference: patent publication US20130324555A1, “Method of use of pharmaceutical formulations for the treatment of apicomplexan diseases in animals” (priority 2012, published 2013)
